Measurements from patent publication US20210330611A1, “THERAPY FOR NEUROLOGICAL DISEASES/DISORDERS” (priority 2020, published 2021).
Counter-ions that a name gives are not always drawn. Like-named read-outs stand apart in the source and are kept apart here.

Assays:
[1] = tested on: fibrin-induced microglia activation; assay: Image-based assay of fibrin-induced microglia activation (HTS and dose response); assay type: cell-based, rat; settings: primary microglia HTS, fibrin stimulation; for inhibition at 10 µM: Rattus norvegicus, Microglia, read-out: Fibrin % inhibition
[2] = tested on: fibrin- and LPS-induced microglia activation; assay: cells; assay type: cell-based, rat
primary rat microglia [3] = tested on: primary rat microglia
primary rat microglia [4] = assay: Cell toxicity (dead cells, size <150 μm2) in coated fibrin (cFib) assay; settings: primary microglia HTS;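 also: share of dead cells sized under 150 µm2 at 10 µM in fibrin-stimulated microglia HTS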
[5] = tested on: LPS-induced microglia activation; assay: Image-based assay of LPS-induced microglia activation (HTS and dose response); assay type: cell-based, rat; settings: for inhibition at 10 µM: Rattus norvegicus, Microglia, read-out: LPS % inhibition
[6] = cell size >800 μm2 as marker of activation
[7] = classification by fibrin and LPS inhibition in HTS
[8] = fibrin stimulation, cell size <150 μm2 as marker of toxicity
[9] = classification by fibrin and LPS inhibition, HTS at 10 μM
[10] = fibrin assay, dead cells (size <150 μm2), compounds at 10 μM
[11] = primary microglia HTS, LPS stimulation, compounds at 10 μM
[12] = quadrant by fibrin and LPS inhibition, HTS at 10 μM
[13] = fibrin assay, dead cells (size <150 μm2)

Row | Compound | Quadrant (FIG. 5b) [2, 7] | Fibrin % cell toxicity (primary rat microglia [4]; [8]) [%] | inhibition at 10 µM ([1]; compounds at 10 μM) [%] | LPS % cell toxicity (primary rat microglia [3]; rat) [%] | inhibition at 10 µM [5, 11] [%] | Quadrant (FIG. 5b) [2, 12] | Fibrin % cell toxicity (primary rat microglia [4]; [13]) [%] | further results
1 | CCCC(C(=O)OCCN(CC)CC)(c1ccccc1)c1ccccc1.Cl | Q4 | 0 | – | – | – | – | – | Fibrin % inhibition [1, 6]: −10%; LPS % cell toxicity (primary rat microglia [3]): 0%; LPS % inhibition [5]: 5%
2 | C[C@]12CC[C@@H]3c4ccc(OS(=O)(=O)O)cc4CC[C@H]3[C@@H]1CCC2=O [Estropipate] | – | – | 10 | 0 | 10 | – | – | Quadrant (FIG. 5b) [2, 9]: Q4; Fibrin % cell toxicity (primary rat microglia [4]; [10]): 1%
3 | CC1(C)S[C@@H]2[C@H](NC(=O)[C@H](NC(=O)N3CCNC3=O)c3ccccc3)C(=O)N2[C@H]1C(=O)O [Azlocillin Sodium] | – | – | – | 0 | – | Q4 | 0 | Fibrin % inhibition ([1]; compounds at 10 μM, 10 µM): −5%; LPS % inhibition ([5]; primary microglia HTS, LPS stimulation, compounds at 10 μM, 10 µM): 17%
4 | CN(C)CC[C@@H](c1ccc(Br)cc1)c1ccccn1 | – | – | – | – | – | – | – | Fibrin % inhibition ([1]; compounds at 10 μM): 0%; Quadrant (FIG. 5b) [2, 9]: Q4; LPS % cell toxicity (primary rat microglia [3]): 0%; Fibrin % cell toxicity (primary rat microglia [4]; [10]): 0%; LPS % inhibition [5, 11]: 10%
5 | Cc1nnc2n1-c1ccc(Cl)cc1C(c1ccccc1)=NC2 [Alprazolam] | – | – | 33 | 0 | 20 | Q4 | 1 | –
6 | CC(N)C(=O)OC(C)(C)Cc1ccc(Cl)cc1.Cl (centres unmarked) [Alaproclate Hydrochloride, Alaproclate] | – | – | – | – | – | Q4 | 1 | Fibrin % inhibition ([1]; compounds at 10 μM): −7%; LPS % cell toxicity (primary rat microglia [3]): 0%; LPS % inhibition [5, 11]: 15%
7 | CCc1oc2ccccc2c1C(=O)c1cc(Br)c(O)c(Br)c1 [Benzbromarone] | – | – | 0 | 1 | 24 | Q4 | 0 | –
8 | CCCCNc1ccc(C(=O)OCCOCCOCCOCCOCCOCCOCCOCCOCCOC)cc1 [Benzonatate] | – | – | 0 | 0 | 12 | Q4 | 1 | –
9 | Cc1c(NC(=O)c2cccnc2)c(=O)n(-c2ccccc2)n1C [Nifenazone] | – | – | 114 | 78 | 132 | Q2 | 85 | –
10 | Cc1onc(-c2c(Cl)cccc2Cl)c1C(=O)N[C@@H]1C(=O)N2[C@@H]1SC(C)(C)[C@@H]2C(=O)O [Dicloxacillin] | – | – | -23 | 0 | 14 | – | – | Quadrant (FIG. 5b) [2, 9]: Q4; Fibrin % cell toxicity (primary rat microglia [4]; [10]): 0%
11 | C=CCOC(Cn1ccnc1)c1ccc(Cl)cc1Cl (centres unmarked) [Enilconazole] | – | – | 24 | 1 | 15 | – | – | Quadrant (FIG. 5b) [2, 9]: Q4; Fibrin % cell toxicity (primary rat microglia [4]; [10]): 1%
12 | CC(=O)N(O)CCCCCNC(=O)CCC(=O)N(O)CCCCCNC(=O)CCC(=O)N(O)CCCCCN [Deferoxamine] | – | – | 2 | 0 | 32 | – | – | Quadrant (FIG. 5b) [2, 9]: Q4; Fibrin % cell toxicity (primary rat microglia [4]; [10]): 1%
13 | CC1(C)O[C@@H]2C[C@H]3[C@@H]4CCC5=CC(=O)C=C[C@]5(C)[C@@]4(F)[C@@H](O)C[C@]3(C)[C@]2(C(=O)CO)O1 [Triamcinolone Acetonide] | – | – | 111 | 4 | 104 | Q2 | 4 | –
14 | CO[C@H]1/C=C/O[C@@]2(C)Oc3c(C)c(O)c4c(O)c(c(/C=N/N5CCN(C6CCCC6)CC5)c(O)c4c3C2=O)NC(=O)/C(C)=C\C=C\[C@H](C)[C@H](O)[C@@H](C)[C@@H](O)[C@@H](C)[C@H](OC(C)=O)[C@@H]1C [Rifapentine] | Q4 | 1 | – | 0 | – | – | – | inhibition at 10 µM [1, 6]: -23%; inhibition at 10 µM ([5]; 48 h): -7%
15 | CCN(CC)CCOC(=O)c1ccc(N)cc1 [Procaine, Novocain] | Q4 | 0 | – | – | – | – | – | Fibrin % inhibition [1, 6]: −10%; LPS % cell toxicity (primary rat microglia [3]): 0%; LPS % inhibition [5]: 25%
16 | N=C(N)NN [Aminoguanidine] | – | – | -25 | 0 | 12 | Q4 | 0 | –
17 | Pizotyline Malate | Q4 | 1 | – | – | – | – | – | Fibrin % inhibition [1, 6]: 8%; LPS % cell toxicity (primary rat microglia [3]): 1%; LPS % inhibition [5]: 37%

Row | Compound | Quadrant (FIG. 5b) [2, 7] | Fibrin % cell toxicity (primary rat microglia [4]; [8]) [%] | inhibition at 10 µM ([1]; compounds at 10 μM) [%] | LPS % cell toxicity (primary rat microglia [3]; rat) [%] | inhibition at 10 µM [5, 11] [%] | Quadrant (FIG. 5b) [2, 12] | Fibrin % cell toxicity (primary rat microglia [4]; [13]) [%] | further results
18 | CS(=O)(=O)c1ccc(C2=C(c3ccccc3)C(=O)OC2)cc1 [Rofecoxib] | Q4 | 0 | – | 0 | – | – | – | inhibition at 10 µM [1, 6]: 15%; inhibition at 10 µM ([5]; 48 h): 14%
19 | CC(=O)Nc1c(I)cc(I)c(C(=O)O)c1I [Acetrizoic acid] | – | – | 14 | 0 | 9 | Q4 | 1 | –
20 | NC[C@@H]1O[C@H](O[C@H]2[C@@H](O)[C@H](O[C@@H]3[C@@H](O)[C@H](N)C[C@H](N)[C@H]3O[C@H]3O[C@H](CO)[C@@H](O)[C@H](O)[C@H]3N)O[C@@H]2CO)[C@H](N)[C@@H](O)[C@@H]1O [Paromomycin Sulfate] | Q4 | 1 | – | 0 | – | – | – | inhibition at 10 µM [1, 6]: 9%; inhibition at 10 µM ([5]; 48 h): 14%
21 | c1ccc2c(c1)Nc1ccccc1S2 [Phenothiazine] | Q4 | 0 | – | 1 | – | – | – | inhibition at 10 µM [1, 6]: -84%; inhibition at 10 µM ([5]; 48 h): 24%
22 | C=CCNC(N)=S [Allylthiourea] | – | – | -7 | 0 | 11 | Q4 | 1 | –
23 | O=S(=O)([O-])CCCS(=O)(=O)[O-].[Na+].[Na+] [Eprodisate Disodium] | – | – | – | – | – | – | – | Fibrin % inhibition ([1]; compounds at 10 μM): −3%; Quadrant (FIG. 5b) [2, 9]: Q4; LPS % cell toxicity (primary rat microglia [3]): 0%; Fibrin % cell toxicity (primary rat microglia [4]; [10]): 1%; LPS % inhibition [5, 11]: 12%
24 | CCOc1ccc2nc3cc(N)ccc3c(N)c2c1 [Ethacridine Lactate] | – | – | -64 | 0 | -8 | – | – | Quadrant (FIG. 5b) [2, 9]: Q4; Fibrin % cell toxicity (primary rat microglia [4]; [10]): 1%
25 | CCC[C@H](N[C@@H](C)C(=O)N1[C@H](C(=O)O)C[C@@H]2CCCC[C@@H]21)C(=O)OCC [Perindopril] | Q4 | 0 | – | 0 | – | – | – | inhibition at 10 µM [1, 6]: -27%; inhibition at 10 µM ([5]; 48 h): 18%
26 | CNC(=C[N+](=O)[O-])NCCSCc1ccc(CN(C)C)o1 [Ranitidine] | Q4 | 1 | – | 0 | – | – | – | inhibition at 10 µM [1, 6]: 35%; inhibition at 10 µM ([5]; 48 h): 15%
27 | Nc1nc(N)nc(NC2CC2)n1 [Cyromazine] | – | – | -9 | 0 | 9 | – | – | Quadrant (FIG. 5b) [2, 9]: Q4; Fibrin % cell toxicity (primary rat microglia [4]; [10]): 1%
28 | CCCCC(O)c1ccccc1 (centres unmarked) [Fenipentol] | – | – | – | – | – | – | – | Fibrin % inhibition ([1]; compounds at 10 μM): −1%; Quadrant (FIG. 5b) [2, 9]: Q4; LPS % cell toxicity (primary rat microglia [3]): 0%; Fibrin % cell toxicity (primary rat microglia [4]; [10]): 1%; LPS % inhibition [5, 11]: 25%
29 | OCc1ccccc1O [Salicyl Alcohol] | Q4 | 1 | – | 0 | – | – | – | inhibition at 10 µM [1, 6]: -5%; inhibition at 10 µM ([5]; 48 h): 19%
30 | CN(C)[C@@H]1C(O)=C(C(=O)NCN2CCCC2)C(=O)[C@@]2(O)C(O)=C3C(=O)c4c(O)cccc4[C@@](C)(O)[C@H]3C[C@@H]12 [Rolitetracycline] | Q4 | 1 | – | 0 | – | – | – | inhibition at 10 µM [1, 6]: 4%; inhibition at 10 µM ([5]; 48 h): 9%
31 | COc1ccc2nc3cc(Cl)ccc3c(Nc3cc(CN4CCCC4)c(O)c(CN4CCCC4)c3)c2n1.O=P(O)(O)O.O=P(O)(O)O.O=P(O)(O)O.O=P(O)(O)O [Pyronaridine Tetraphosphate] | Q4 | 1 | – | – | – | – | – | Fibrin % inhibition [1, 6]: 16%; LPS % cell toxicity (primary rat microglia [3]): 0%; LPS % inhibition [5]: 9%
32 | NCC[C@H](O)C(=O)N[C@@H]1C[C@H](N)[C@@H](O[C@H]2O[C@H](CN)[C@@H](O)[C@H](O)[C@H]2O)[C@H](O)[C@H]1O[C@H]1O[C@H](CO)[C@@H](O)[C@H](N)[C@H]1O.O=S(=O)(O)O.O=S(=O)(O)O [Amikacin Sulfate] | – | – | – | – | – | Q4 | 1 | Fibrin % inhibition ([1]; compounds at 10 μM): 3%; LPS % cell toxicity (primary rat microglia [3]): 0%; LPS % inhibition [5, 11]: 1%
33 | CC(=O)Nc1ccc(C(=O)O)cc1 [4-acetamidobenzoic acid] | – | – | 32 | 0 | 42 | Q4 | 1 | –
34 | CCCOc1cc(N)ccc1C(=O)OCCN(CC)CC [Propoxycaine] | Q4 | 0 | – | 0 | – | – | – | inhibition at 10 µM [1, 6]: 13%; inhibition at 10 µM ([5]; 48 h): 14%
